Assay results taken from US20240190993A1, “NEW METHOD TO IMPROVE THE ANTI-TUMORAL ACTIVITY OF MACROPHAGES” (INSERM (INSTITUT NATIONAL DE LA SANTÉ ET DE LA RECHERCHE …, priority 2021, published 2024).
“Also recorded” adds a separate entry of the source.

Legend:
CD47 [1] = assay: CD47 cell-surface expression in human NB cell lines in vitro, flow cytometry; assay type: cell-based; conditions: human NB cell lines IMR5, LAN1; 72 hours incubation; FIG. 2A-C
Protocol: (§1) FIG. 2. Both O-acetyl GD2-specific monoclonal antibody 8B6 and 13-cis-RA exposures induce CD47 phagocytosis checkpoint up-regulation in NB cells in vitro. The NB cells IMR5, LAN1 and NXS2 were respectively incubated for 72 hours with (A) 13-cis-RA, (B) mAb 8B6, and (C) 13-cis-RA plus mAb 8B6, as indicated. After incubation, CD47 cell surface expression was analyzed by flow cytometry analysis. […] Data are presented as the mean±SEM ([…]; **p<0.01; ***p<0.001; Mann-Whitney test).
(§2) We next interrogate the impact of mAb 8B6, used alone or in combination with 13-cis-RA, on CD47 cell-surface expression in human NB cell line. After 72 hours incubation, cells were harvested, stained with a CD47-specific mAb and then subjected to flow cytometry analysis. […] The tested treatments had little impact on CD47 NXS2 cell-surface expression (FIG. 2A-C).

CD47 [2] = assay: CD47 cell-surface expression in NXS2 cells in vitro, flow cytometry; assay type: cell-based, mouse; conditions: 72 hours incubation, FIG. 2A-C
Protocol: as §1, §2

NXS2 cells = assay: syngeneic model of NXS2 NB liver metastasis in A/J mice, liver weight; assay type: in vivo, mouse
Protocol: Depletion of macrophages in 8-week-old A/J mice was performed clodronate liposomes or liposomes obtained from Liposoma (Liposoma BV, Amsterdam, the Netherlands) according to the manufacturer's instructions. Mice were given either clodronate liposomes or liposome i.p. 4 days before tumor cell injection and thereafter on days 0, 3, 7, 10, 14, 17, and 21 post-tumor cell inoculation. The effectiveness of macrophage depletion was determined by flow cytometry analysis of CD45+F4/80+CD11b+Ly6G-Ly6Clow-int cells among splenocytes from the treated animals.
NXS2 Cells (2.5×10^5 in 100 μL of PBS) were transplanted into syngeneic 8-weeks old female A/J mice (Harlan Laboratories, Gannat, France) i.v., to induces liver metastasis 6. Mice received either mAb 8B6 (25 μg, i.v.) or mAb P84 (200 μg, i.p.) twice a week for 3 consecutive weeks beginning 3 days after tumor cell injection. Isotretinoin was given orally diluted in Ora-Plus® at 10 mg/kg daily for 5 consecutive days, starting week 3 after tumor cell challenge. Mice were euthanized on day 27 post-tumor challenge. Anti-tumor efficacy was evaluated by liver weight of the fresh specimen as described previously 6.

CC1=C(/C=C/C(C)=C/C=C/C(C)=C\C(=O)O)C(C)(C)CCC1 [13-cis-RA, 13-cis-retinoic acid]
CD47 cell-surface expression (CD47 [1]): induces up-regulation of CD47; also recorded: induced CD47 up-regulation | CD47 cell-surface expression (CD47 [2]): induces up-regulation of CD47 | liver weight (NXS2 cells; FIG. 1B, day 27 after i.v. NXS2 inoculation, 8 mice/group, 8B6 i.v. days 3,7,10,14,17,21, 13-cis-RA 10 mg/kg per os): 1.19 ± 0.0 g | liver weight (NXS2 cells; FIG. 4B, day 27, 8B6 25 μg i.v., P84 i.p. days 3,7,10,14,17,21, 13-cis-RA 10 mg/kg per os days 17-21): 1.95 ± 0.12 g
